From ChEMBL document CHEMBL5260845, “Flavone-based arylamides as potential anticancers: Design, synthesis and in vitro cell-based/cell-free evaluations” (2020)
One block for each compound: values may come before it. Calls of active or inactive are those of the source. The rule behind the calls is not given here.

Legend:
[1] = system: SF-295; assay: Antiproliferative activity against human SF-295 cells assessed as cell growth inhibition at 10 uM by SRB assay relative to control; format: functional
[2] = system: SK-MEL-28; assay: Antiproliferative activity against human SK-MEL-28 cells assessed as cell growth inhibition at 10 uM by SRB assay relative to control; format: functional
[3] = system: SK-MEL-5; assay: Antiproliferative activity against human SK-MEL-5 cells assessed as cell growth inhibition at 10 uM by SRB assay relative to control; format: functional
[4] = system: Malme-3M; assay: Antiproliferative activity against human Malme-3M cells assessed as cell growth inhibition at 10 uM by SRB assay relative to control; format: functional
[5] = system: HL-60; assay: Antiproliferative activity against human HL-60 cells assessed as cell growth inhibition at 10 uM by SRB assay relative to control; format: functional
[6] = system: RPMI-8226; assay: Antiproliferative activity against human RPMI-8226 cells assessed as cell growth inhibition at 10 uM by SRB assay relative to control; format: functional
[7] = system: CCRF-CEM; assay: Antiproliferative activity against human CCRF-CEM cells assessed as cell growth inhibition at 10 uM by SRB assay; format: functional, cell-based
[8] = system: HL-60; assay: Antiproliferative activity against human HL-60 cells assessed as cell growth inhibition at 10 uM by SRB assay; format: functional, cell-based
[9] = system: K562; assay: Antiproliferative activity against human K562 cells assessed as cell growth inhibition at 10 uM by SRB assay; format: functional, cell-based
[10] = system: MOLT-4; assay: Antiproliferative activity against human MOLT-4 cells assessed as cell growth inhibition at 10 uM by SRB assay; format: functional, cell-based
[11] = system: RPMI-8226; assay: Antiproliferative activity against human RPMI-8226 cells assessed as cell growth inhibition at 10 uM by SRB assay; format: functional, cell-based
[12] = system: SR; assay: Antiproliferative activity against human SR cells assessed as cell growth inhibition at 10 uM by SRB assay; format: functional, cell-based
[13] = system: EKVX; assay: Antiproliferative activity against human EKVX cells assessed as cell growth inhibition at 10 uM by SRB assay; format: functional
[14] = system: HOP-62; assay: Antiproliferative activity against human HOP-62 cells assessed as cell growth inhibition at 10 uM by SRB assay; format: functional, cell-based
[15] = system: NCI-H226; assay: Antiproliferative activity against human NCI-H226 cells assessed as cell growth inhibition at 10 uM by SRB assay; format: functional
[16] = system: NCI-H23; assay: Antiproliferative activity against human NCI-H23 cells assessed as cell growth inhibition at 10 uM by SRB assay; format: functional
[17] = system: NCI-H322M; assay: Antiproliferative activity against human NCI-H322M cells assessed as cell growth inhibition at 10 uM by SRB assay; format: functional, cell-based
[18] = system: NCI-H460; assay: Antiproliferative activity against human NCI-H460 cells assessed as cell growth inhibition at 10 uM by SRB assay; format: functional, cell-based
[19] = system: COLO 205; assay: Antiproliferative activity against human COLO 205 cells assessed as cell growth inhibition at 10 uM by SRB assay relative to control; format: functional
[20] = system: HCC 2998; assay: Antiproliferative activity against human HCC 2998 cells assessed as cell growth inhibition at 10 uM by SRB assay relative to control; format: functional
[21] = system: COLO 205; assay: Antiproliferative activity against human COLO 205 cells assessed as cell growth inhibition at 10 uM by SRB assay; format: functional, cell-based
[22] = system: HCT-15; assay: Antiproliferative activity against human HCT-15 cells assessed as cell growth inhibition at 10 uM by SRB assay; format: functional, cell-based
[23] = system: HT-29; assay: Antiproliferative activity against human HT-29 cells assessed as cell growth inhibition at 10 uM by SRB assay; format: functional, cell-based
[24] = system: KM12; assay: Antiproliferative activity against human KM12 cells assessed as cell growth inhibition at 10 uM by SRB assay; format: functional, cell-based
[25] = system: SW-620; assay: Antiproliferative activity against human SW620 cells assessed as cell growth inhibition at 10 uM by SRB assay; format: functional, cell-based
[26] = system: U-251; assay: Antiproliferative activity against human U-251 cells assessed as cell growth inhibition at 10 uM by SRB assay relative to control; format: functional
[27] = system: SF-539; assay: Antiproliferative activity against human SF-539 cells assessed as cell growth inhibition at 10 uM by SRB assay relative to control; format: functional
[28] = system: UACC-257; assay: Antiproliferative activity against human UACC-257 cells assessed as cell growth inhibition at 10 uM by SRB assay relative to control; format: functional
[29] = system: UACC-62; assay: Antiproliferative activity against human UACC-62 cells assessed as cell growth inhibition at 10 uM by SRB assay relative to control; format: functional
[30] = system: LOX IMVI; assay: Antiproliferative activity against human LOX IMVI cells assessed as cell growth inhibition at 10 uM by SRB assay relative to control; format: functional
[31] = system: OVCAR-8; assay: Antiproliferative activity against human OVCAR-8 cells assessed as cell growth inhibition at 10 uM by SRB assay relative to control; format: functional
[32] = system: OVCAR-3; assay: Antiproliferative activity against human OVCAR-3 cells assessed as cell growth inhibition at 10 uM by SRB assay relative to control; format: functional; conditions: pooled result: one value given for 2 cell lines, strains, targets or settings
[33] = system: IGROV-1; assay: Antiproliferative activity against human IGROV-1 cells assessed as cell growth inhibition at 10 uM by SRB assay relative to control; format: functional
[34] = system: 786-0; assay: Antiproliferative activity against human 786-0 cells assessed as inhibition of cell growth at 10 uM by SRB assay relative to control; format: functional
[35] = system: ACHN; assay: Antiproliferative activity against human ACHN cells assessed as inhibition of cell growth at 10 uM by SRB assay relative to control; format: functional; conditions: pooled result: one value given for 2 cell lines, strains, targets or settings
[36] = system: SN12C; assay: Antiproliferative activity against human SN12C cells assessed as inhibition of cell growth at 10 uM by SRB assay relative to control; format: functional
[37] = system: DU-145; assay: Antiproliferative activity against human DU-145 cells assessed as inhibition of cell growth at 10 uM by SRB assay; format: functional, cell-based
[38] = system: Melanoma cell line; assay: Antiproliferative activity against human melanoma cells assessed as cell growth inhibition at 10 uM by SRB assay relative to control; format: functional
[39] = Antiproliferative activity against human hematologic cancer cells assessed as cell growth inhibition at 10 uM by SRB assay relative to control; format: functional
[40] = system: Renal cancer cell line; assay: Antiproliferative activity against human renal cancer cells assessed as cell growth inhibition at 10 uM by SRB assay relative to control; format: functional
[41] = Antiproliferative activity against human colon cancer cells assessed as cell growth inhibition at 10 uM by SRB assay relative to control; format: functional; conditions: Colon carcinoma cell
[42] = system: Breast carcinoma cell; assay: Antiproliferative activity against human breast cancer cells assessed as cell growth inhibition at 10 uM by SRB assay relative to control; format: functional; conditions: pooled result: one value given for 3 cell lines, strains, targets or settings
[43] = system: Lung cancer cell line; assay: Antiproliferative activity against human lung cancer cells assessed as cell growth inhibition at 10 uM by SRB assay relative to control; format: functional
[44] = Antiproliferative activity against human brain cancer cells assessed as cell growth inhibition at 10 uM by SRB assay relative to control; format: functional
[45] = system: RPMI-8226; assay: Antiproliferative activity against human RPMI-8226 cells assessed as cell growth inhibition by SRB assay; format: functional

GI50 [45]: 0.37 µM
SMILES: COc1cc2oc(-c3cccc(C(=O)Nc4ccc(C)cc4)c3)cc(=O)c2c(OC)c1OC
inhibition at 10 µM [1]: 147% | inhibition at 10 µM [2]: 92.9% | inhibition at 10 µM [3]: 108% | inhibition at 10 µM [4]: 70.1% | inhibition at 10 µM [5]: 92.7% | inhibition at 10 µM [6]: 82.6% | inhibition [7]: Active | inhibition [8]: Active | inhibition [9]: Active | inhibition [10]: Active | inhibition [11]: Active | inhibition [12]: Active | inhibition [13]: Active | inhibition [14]: Active | inhibition [15]: Active | inhibition [16]: Active | inhibition [17]: Active | inhibition [18]: Active | inhibition at 10 µM [19]: 82% | inhibition at 10 µM [20]: 50.1% | inhibition [21]: Active | inhibition [22]: Active | inhibition [23]: Active | inhibition [24]: Active | inhibition [25]: Active | inhibition at 10 µM [26]: > 50% | inhibition at 10 µM [27]: > 50% | inhibition at 10 µM [28]: 70.1% | inhibition at 10 µM [29]: 108% | inhibition at 10 µM [30]: 108% | inhibition at 10 µM [31]: 51.8% | inhibition at 10 µM [32]: 51.8% | inhibition at 10 µM [33]: 51.8% | inhibition at 10 µM [34]: 55.7% | inhibition at 10 µM [35]: 55.7% | inhibition at 10 µM [36]: 55.7% | inhibition [37]: Active | inhibition at 10 µM [38]: 95.9% | inhibition at 10 µM [39]: 72.5% | inhibition at 10 µM [40]: 72.5% | inhibition at 10 µM [41]: 72.5% | inhibition at 10 µM [42]: 53.4% | inhibition at 10 µM [43]: 66.5% | inhibition at 10 µM [44]: 64.7%

GI50 [45]: 0.49 µM
SMILES: COc1cc2oc(-c3cccc(C(=O)Nc4ccc(Cl)cc4)c3)cc(=O)c2c(OC)c1OC
inhibition at 10 µM [1]: 142% | inhibition at 10 µM [2]: 107% | inhibition at 10 µM [3]: 107% | inhibition at 10 µM [4]: 85.8% | inhibition at 10 µM [5]: 111% | inhibition at 10 µM [6]: 82.6% | inhibition [7]: Active | inhibition [8]: Active | inhibition [9]: Active | inhibition [10]: Active | inhibition [11]: Active | inhibition [12]: Active | inhibition [13]: Active | inhibition [14]: Active | inhibition [15]: Active | inhibition [16]: Active | inhibition [17]: Active | inhibition [18]: Active | inhibition at 10 µM [19]: 98.3% | inhibition at 10 µM [20]: 77.4% | inhibition [21]: Active | inhibition [22]: Active | inhibition [23]: Active | inhibition [24]: Active | inhibition [25]: Active | inhibition at 10 µM [26]: > 50% | inhibition at 10 µM [27]: > 50% | inhibition at 10 µM [28]: 107% | inhibition at 10 µM [29]: 107% | inhibition at 10 µM [30]: 97.8% | inhibition at 10 µM [31]: 56.9% | inhibition at 10 µM [32]: 56.9% | inhibition at 10 µM [33]: 56.9% | inhibition at 10 µM [34]: 88% | inhibition at 10 µM [35]: 61.4% | inhibition at 10 µM [36]: 61.4% | inhibition [37]: Active | inhibition at 10 µM [38]: 102% | inhibition at 10 µM [39]: 90% | inhibition at 10 µM [40]: 82.9% | inhibition at 10 µM [41]: 61.5% | inhibition at 10 µM [42]: 61.5% | inhibition at 10 µM [43]: 61.5% | inhibition at 10 µM [44]: 61.5%
